Data reported in patent publication US7563791B2, “Pyrrolotriazine derivatives useful for treating hyper-proliferative disorders and diseases associated with angiogenesis” (Bayer Pharmaceuticals Corporation, priority 2004, dated 2009).
pIC50: −log10 of the molar value. Each block holds one compound with its values, some of them ahead of it.

Legend:
Type in all cases: cell-based
[1] = system: histone 3 phosphorylation in colon carcinoma (HCT116); assay: p-Histone3 assay: inhibition of histone 3 phosphorylation in HCT116; conditions: Homo sapiens, HCT-116, 24 h, HCT116, 24 hours compound treatment; for IC50: bound given in μM
Experimental: Compounds were assayed for the inhibition of histone 3 phosphorylation in colon carcinoma (HCT116). Briefly, 20,000 cells/well were seeded in a 96-well black-walled, poly-d-lysine plates in RPMI+10% FBS and incubated at 37° C. in 5% CO2 overnight. The following day, the cells were treated with compounds for 24 hours at 37° C. Following compound treatment; plates were centrifuged at 1000 rpm for 2 minutes and washed twice with 100 μl of cold sterile TBS. Cells were then fixed with cold 3.7% formaldehyde in TBS (4° C. for 1 hour) and then permeabolized with 0.1% Triton-X-100 in TBS (room temperature for 30 minutes). Plates were then washed with of 0.25% BSA-TBS and blocked with BSA solution for 1 hour at room temperature while shaking. The supernatant was removed and replaced with diluted primary antibody (anti-phospho-histone 3, serine 10, Cell Signaling) at 1:250 in 0.25% BSA-TBS and incubated overnight at 4° C. The plates were washed and treated with diluted secondary antibody (anti-rabbit Eu-labeled) at 1:10000 in 0.25% BSA-TBS (room temperature for 1 hour). The antibody solution was removed from each well and washed eight times. The wash buffer was replaced with 50 μl pre-warmed enhancement solution and mixed on the orbital shaker for 10 minutes. Fluorescence was detected with a Victor V Fluorescence Detector. The data are expressed as percent inhibition: % inhibition=100−((Signal with inhibitor-background)/(Signal without inhibitor-background))×100.

[2] = system: VEGFR stimulated HUVEC proliferation; assay: BRDU growth factor stimulated proliferation of HUVEC (VEGF stimulation); conditions: Homo sapiens, 72 h, 80 ng/ml VEGF, 3 days, BrdU incorporation
Experimental: (§1) BRDU Growth Factor Stimulated Proliferation of HUVEC
(§2) Exponentially growing human umbilical vein endothelial cells (HUVEC; Cat# CC-2519A, Cambrex, Walkersville, Md.) were seeded at two thousand cells/well into Collagen IV-coated 96 well plates (Cat#35-4429, Becton Dickinson, Bedford, Mass.) in assay media containing RPMI-1640 (Cat#11875-093, Gibco, Carlsbad, Calif.), 0.5% charcoal-stripped serum (Cat# SH30068.03, HyClone, Logan, Utah), and 1% N-2 supplement (Cat#17502-048, Gibco, Carlsbad, Calif.). Fours hours after incubating the plates at 37° C. in 5% CO2, the cells were treated with different concentrations of compound (diluted in assay media with a final DMSO concentration=0.1%) and then were immediately stimulated with 80 ng/ml of vascular endothelial growth factor (VEGF, Cat#100-20, PeproTech, Rocky Hill, N.J.) or 1.5 ng/ml of basic fibroblast growth factor (bFGF, Catt#100-18B, PeproTech, Rocky Hill, N.J.). Treated cells were incubated for 3 days at 37° C. in 5% CO2. DNA synthesis was measured via the incorporation of bromodeoxyuridine (BrdU) into newly synthesized DNA using the Amersham Cell Proliferation BioTrack ELISA system (Cat# RPN250, Amersham, Piscataway, N.J.). Diluted BrdU solution (20 μl of stock BrdU diluted 1:20 fold into assay media) was added to each well and incubation proceeded for 6 hours at 37° C. in 5% CO2. The media was removed and the cells were fixed according to the specifications of the Amersham assay kit for 30 minutes at room temperature. After removing the fixative, blocking buffer (supplied by Amersham kit; 200 μl/well) was added and the plates were stored at 4° C. overnight. The blocking buffer was aspirated and peroxidase-labeled anti-BrdU antibody (supplied by Amersham kit; 100 μl/well) was added and incubated for 3 hours at room temperature. The plates were washed three times with wash buffer (supplied by Amersham kit; 300 μl/well/wash). Immediately following the washes, 100 μl of the TMB-substrate was dispensed into each well and the plates were further incubated for 30 minutes at room temperature. The reaction was terminated by the addition of 25 μl of 1M H2SO4. Plates were read immediately at 450 nm using a SpectraMAX 250 spectrophotometer plate reader (Molecular Devices, Sunnyvale, Calif.). The software utilized was SoftMAX pro v.2.4.1.

[3] = system: FGFR stimulated HUVEC proliferation; assay: BRDU growth factor stimulated proliferation of HUVEC (bFGF stimulation); conditions: Homo sapiens, 72 h, 1.5 ng/ml bFGF, 3 days, BrdU incorporation
Experimental: as §1, §2

MDA-MB-231 cells = assay: Tumor cell proliferation (Alamar Blue), MDA-MB-231; conditions: Homo sapiens, MDA-MB-231, 72 h; for IC50: bounds given in μM
Method in brief: (§3)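 Cells seeded at 3.0×10^3/well in RPMI with 10% FBS for 16 h, then treated with compound (added medium held 40 μM to 18 nM compound, 0.4% DMSO) for 72 h at 37 °C, 5% CO2. Viability by Alamar Blue, 3 h, fluorescence 544/590 nm. IC50 by linear regression of log concentration versus percent inhibition.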

[4] = system: VEGF stimulated Phospho-ERK in HUVEC; assay: Growth factor stimulated p-ERK assay in HUVECs (VEGF stimulation, ERK1/2 Bioplex); conditions: Homo sapiens, compound 2 hrs, then 50 ng/ml VEGF 10 min; for inhibition at 0.1 µM: @ 100 nM
Method in brief: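 HUVECs in serum-free RPMI 1640/0.1% BSA pretreated with compound 2 hrs, then stimulated 10 min with 50 ng/ml VEGF (or bFGF). Lysate phospho-ERK1/2 quantified by bead-based Bio-Plex immunoassay on Luminex.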

HCT116 cells = assay: Tumor cell proliferation (Alamar Blue), HCT116; conditions: Homo sapiens, HCT-116, 72 h; for IC50: bounds given in μM
Method in brief: as §3

Compound: CCOC(=O)c1cn2ncnc(N)c2c1-c1ccc(NC(=O)Nc2ccc3c(c2)OCO3)cc1 [Example 13, ethyl 4-amino-5-(4-{[(1,3-benzodioxol-5-ylamino)carbonyl]amino}phenyl)pyrrolo[2,1-f][1,2,4]triazine-6-carboxylate]
pIC50 [1]: < 6.30 | IC50 [1]: < 1 µM

Compound: Nc1ncnn2cc(C(=O)NCC(F)(F)F)c(-c3ccc(NC(=O)Nc4cccc(C(F)(F)F)n4)cc3)c12 [Example 139, 4-amino-N-(2,2,2-trifluoroethyl)-5-{4-[({[6-(trifluoromethyl)pyridin-2-yl]amino}carbonyl)amino]phenyl}pyrrolo[2,1-f][1,2,4]triazine-6-carboxamide]
pIC50 [1]: > 6.30

Compound: CC(C)(C)NC(=O)c1cn2ncnc(N)c2c1-c1ccc(NC(=O)Nc2cccc(C(F)(F)F)n2)cc1 [Example 164, 4-amino-N-(tert-butyl)-5-{4-[({[6-(trifluoromethyl)pyridin-2-yl]amino}carbonyl)amino]phenyl}pyrrolo[2,1-f][1,2,4]triazine-6-carboxamide]
pIC50 [1]: > 6.30

Compound: Nc1ncnn2cc(C(=O)NC3CC3)c(-c3ccc(NC(=O)Nc4cccc(C(F)(F)F)n4)cc3)c12 [Example 177, 4-amino-N-cyclopropyl-5-{4-[({[6-(trifluoromethyl)pyridin-2-yl]amino}carbonyl)amino]phenyl}pyrrolo[2,1-f][1,2,4]triazine-6-carboxamide]
pIC50 [1]: > 6.30

Compound: Nc1ncnn2cc(C(=O)NCC(F)(F)F)c(-c3ccc(NC(=O)Nc4cc(C(F)(F)F)ccc4F)cc3)c12 [Example 70, 4-amino-5-{4-[({[2-fluoro-5-(trifluoromethyl)phenyl]amino}carbonyl)amino]phenyl}-N-(2,2,2-trifluoroethyl)pyrrolo[2,1-f][1,2,4]triazine-6-carboxamide]
pIC50 [2]: > 8.00 | pIC50 [3]: > 7.00 | pIC50 (MDA-MB-231 cells): > 6.30 | inhibition at 0.1 µM [4]: > 50% | pIC50 (HCT116 cells): > 6.30

Compound: CSCCCNC(=O)c1cn2ncnc(N)c2c1-c1ccc(NC(=O)Nc2cccc(C(F)(F)F)n2)cc1 [Example 204, 4-amino-N-[3-(methylthio)propyl]-5-{4-[({[6-(trifluoromethyl)pyridin-2-yl]amino}carbonyl)amino]phenyl}pyrrolo[2,1-f][1,2,4]triazine-6-carboxamide]
pIC50 [1]: < 6.30 | IC50 [1]: < 1 µM

Compound: Nc1ncnn2cc(C(=O)NCC(F)(F)F)c(-c3ccc(NC(=O)Nc4ccc(F)c(C(F)(F)F)c4)cc3)c12 [Example 88, 4-amino-5-{4-[({[4-fluoro-3-(trifluoromethyl)phenyl]amino}carbonyl)amino]phenyl}-N-(2,2,2-trifluoroethyl)pyrrolo[2,1-f][1,2,4]triazine-6-carboxamide]
pIC50 [1]: > 6.30

Compound: CCOC(=O)c1cn2ncnc(N)c2c1-c1ccc(NC(=O)Nc2ccccc2C(F)(F)F)cc1 [Example 7, ethyl 4-amino-5-{4-[({[2-(trifluoromethyl)phenyl]amino}carbonyl)amino]phenyl}pyrrolo[2,1-f][1,2,4]triazine-6-carboxylate]
pIC50 [1]: < 6.30 | IC50 [1]: < 1 µM

Compound: CCOC(=O)c1cn2ncnc(N)c2c1-c1ccc(NC(=O)Nc2cccc(Oc3ccccc3)c2)cc1 [Example 171, ethyl 4-amino-5-[4-({[(3-phenoxyphenyl)amino]carbonyl}amino)phenyl]pyrrolo[2,1-f][1,2,4]triazine-6-carboxylate]
pIC50 [1]: > 6.30

Compound: Nc1ncnn2cc(C(=O)NCC(F)(F)F)c(-c3ccc(NC(=O)Nc4cccc(CC(F)(F)F)c4)cc3)c12 [Example 92, 4-amino-N-(2,2,2-trifluoroethyl)-5-{4-[({[3-(2,2,2-trifluoroethyl)phenyl]amino}carbonyl)amino]phenyl}pyrrolo[2,1-f][1,2,4]triazine-6-carboxamide]
pIC50 [1]: > 6.30

Compound: CC(C)(C)CNC(=O)c1cn2ncnc(N)c2c1-c1ccc(NC(=O)Nc2cccc(C(F)(F)F)n2)cc1 [Example 165, 4-amino-N-(2,2-dimethylpropyl)-5-{4-[({[6-(trifluoromethyl)pyridin-2-yl]amino}carbonyl)amino]phenyl}pyrrolo[2,1-f][1,2,4]triazine-6-carboxamide]
pIC50 [1]: > 6.30

More lines, main results first:

pIC50 [1]: < 6.30 | IC50 [1]: < 1 µM
Compound: COCCNC(=O)c1cn2ncnc(N)c2c1-c1ccc(NC(=O)Nc2cc(C(F)(F)F)ccc2F)cc1 [Example 167, 4-amino-5-{4-[({[2-fluoro-5-(trifluoromethyl)phenyl]amino}carbonyl)amino]phenyl}-N-(2-methoxyethyl)pyrrolo[2,1-f][1,2,4]triazine-6-carboxamide]

IC50 (MDA-MB-231 cells): 1.5 to 5 µM | IC50 (HCT116 cells): 1.5 to 5 µM
Compound: N#CCc1cn2ncnc(N)c2c1-c1ccc(NC(=O)Nc2cc(C(F)(F)F)ccn2)cc1 [Example 226, N-{4-[4-amino-6-(cyanomethyl)pyrrolo[2,1-f][1,2,4]triazin-5-yl]phenyl}-N′-[4-(trifluoromethyl)pyridin-2-yl]urea]
pIC50 [2]: > 8.00 | pIC50 [3]: 6.30 to 7.00

pIC50 [1]: > 6.30
Compound: CCNC(=O)c1cn2ncnc(N)c2c1-c1ccc(NC(=O)Nc2cccc(C(F)(F)F)n2)cc1 [Example 176, 4-amino-N-ethyl-5-{4-[({[6-(trifluoromethyl)pyridin-2-yl]amino}carbonyl)amino]phenyl}pyrrolo[2,1-f][1,2,4]triazine-6-carboxamide]

pIC50 (MDA-MB-231 cells): < 6.30 | IC50 (MDA-MB-231 cells): < 1.5 µM | pIC50 (HCT116 cells): < 6.30 | IC50 (HCT116 cells): < 1.5 µM
Compound: CC(=O)c1cn2ncnc(N)c2c1-c1ccc(NC(=O)Nc2cc(C(F)(F)F)ccc2F)cc1 [Example 223, N-[4-(6-acetyl-4-aminopyrrolo[2,1-f][1,2,4]triazin-5-yl)phenyl]-N′-[2-fluoro-5-(trifluoromethyl)phenyl]urea]
pIC50 [2]: 7.00 to 8.00 | pIC50 [3]: > 7.00

IC50 (MDA-MB-231 cells): 5 to 10 µM | IC50 (HCT116 cells): 1.5 to 5 µM
Compound: COCc1cn2ncnc(N)c2c1-c1ccc(NC(=O)Nc2cc(F)cc(C(F)(F)F)c2)cc1 [Example 102, N-{4-[4-amino-6-(methoxymethyl)pyrrolo[2,1-f][1,2,4]triazin-5-yl]phenyl}-N′-[3-fluoro-5-(trifluoromethyl)phenyl]urea]
pIC50 [2]: 6.30 to 7.00 | pIC50 [3]: 6.30 to 7.00

pIC50 (MDA-MB-231 cells): < 6.30 | IC50 (MDA-MB-231 cells): < 1.5 µM | IC50 (HCT116 cells): 1.5 to 5 µM
Compound: N#Cc1cn2ncnc(N)c2c1-c1ccc(NC(=O)Nc2cc(C(F)(F)F)ccc2F)cc1 [Example 99, N-[4-(4-amino-6-cyanopyrrolo[2,1-f][1,2,4]triazin-5-yl)phenyl]-N′-[2-fluoro-5-(trifluoromethyl)phenyl]urea]
pIC50 [2]: 6.30 to 7.00 | pIC50 [3]: > 7.00 | inhibition at 0.1 µM [4]: < 50% | inhibition at 1 µM ([4]; @ 1 μM): > 50%
